Source: patent publication US10137115B2, “Therapeutic inhibitor for EBV-associated tumor with tailor responsive optical imaging” (priority 2016, dated 2018)
pKd: −log10 of the molar value. “Also recorded” adds a separate entry of the source. Non-standard residues stand in square brackets, D forms with d. Residues, ends and D or L forms follow the SMILES beside them. No end group written: not given here. *: point of attachment. X1 = CCN(CC)c1ccc(/C=C/c2cc[n+](CC(=O)*)cc2)cc1; Ahx = NCCCCCC(=O)O

Assays:
[1] = Emission quantum yield in water, comparative method using rhodamine 6G; format: physicochemical; details: λex=480 nm, without WT-EBNA1
Method: Quantum yields of L2Pn are evaluated by the following equation 1: […]
Where the subscripts r and s denote reference and sample respectively, ϕ is the quantum yield, G is the slope from the plot integrated emission intensity vs absorbance, and η is the refractive index of the solvent. The correction curve is obtained by comparing the experimentally recorded spectrum of the standard rhodamine 6G with the published data.

[2] = tested on: EBV-positive (C666-1 and NPC43) and EBV-negative (CNE2 and HeLa) cell lines; test: In vitro confocal imaging and co-staining; format: cell-based, human; details: 10 μM, 6 h
Method: HeLa is EBV-negative human cervical carcinoma cells, CNE2 is EBV-negative nasopharyngeal carcinoma cells, C666-1 is EBV-positive nasopharyngeal carcinoma cells, and NPC 43 is the newly derived EBV-positive nasopharyngeal carcinoma cells.
The cells are incubated with 6 hours before monitoring imaging.

[3] = target: T1, WT-EBNA1 (Epstein-Barr virus, UniProt P03211); test: Emission quantum yield in the presence of WT-EBNA1; details: in water, saturated WT-EBNA1, λex=480 nm
[4] = target: T1, WT-EBNA1; test: biochemical; format: binding; design: Wild type EBNA1 protein (379-641 a.a.) fusing with glutathione S-transferase is expressed in Escherichia coli; GST (glutathione S-transferase); made in house; host or cells: Escherichia coli (BL21); details: for emission intensity increase on addition of WT-EBNA1: 4 μM WT-EBNA1, PBS buffer
Method: Bind constant via luminescence titration: Luminescence titration analysis is conducted with gradually addition of WT EBNA1 to evaluate the binding constants between the three peptide conjugates and WT EBNA1. […] The binding constants for Ka are obtained from the double logarithm regression curve: lg[(I−I0)/I0]=lg Ka+n lg[G] equation 2
Where I and I0 are current and initial fluorescence, respectively, Ka is the binding constant, n is the number of binding sites per WT EBNA1, and [G] is total concentration of WT EBNA1.
Protein samples preparation. Five protein samples are used.

T1 sequence (P03211 379-641): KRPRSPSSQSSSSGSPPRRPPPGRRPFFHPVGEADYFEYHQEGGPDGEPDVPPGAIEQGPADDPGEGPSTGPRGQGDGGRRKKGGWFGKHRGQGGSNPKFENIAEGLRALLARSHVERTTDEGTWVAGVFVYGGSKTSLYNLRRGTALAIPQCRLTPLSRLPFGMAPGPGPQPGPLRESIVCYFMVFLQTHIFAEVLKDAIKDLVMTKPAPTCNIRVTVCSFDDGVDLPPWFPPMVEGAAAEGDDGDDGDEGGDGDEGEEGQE

## CCN(CC)c1ccc(/C=C/c2cc[n+](CC(=O)N[C@@H](CS)C(=O)NCCCCCC(=O)N[C@@H](CCCNC(=N)N)C(=O)N[C@H](CCCNC(=N)N)C(=O)N[C@@H](CCCNC(=N)N)C(=O)N[C@@H](CCCCN)C(=O)NCC(=O)NCC(=O)N[C@@H](Cc3ccc(O)cc3)C(=O)N[C@@H](Cc3ccccc3)C(=O)N[C@@H](CCSC)C(=O)N[C@H](C(=O)N[C@@H](Cc3ccccc3)C(N)=O)C(C)C)cc2)cc1 [L2P3] (X1-C[Ahx]R[dR]RKGGYFMVF-NH2)
[1]
  emission quantum yield: 4.3%
[2]
  subcellular localization in EBV-positive cells: can goes into C666-1 cell nucleus; also recorded: nuclear localization
[3]
  emission quantum yield + WT EBNA1: 13.0%
[4]
  pKd: 5.50
  emission intensity increase on addition of WT-EBNA1: 4.7 fold
[4]; 2 μM in PBS buffer, vs BSA, mutant EBNA1, ZnCl2, NaHCO3, CuCl2, citrates
  selectivity towards WT-EBNA1 (emission enhancement vs other proteins, ions): selective towards WT-EBNA1

## L2P2: peptide conjugate of L2 (4-(4-(Diethylamino)styryl)-N-carboxymethylpyridinium chloride) and peptide P2 YFMVF (also: conjugated to L2, site not given here)
[1]
  emission quantum yield: 4.4%
[2]
  subcellular localization in EBV-positive cells: cytoplasm location only; also recorded: only found in the cytoplasm
[3]
  emission quantum yield + WT EBNA1: 3.8%
[4]
  emission intensity increase on addition of WT-EBNA1: no intensity change; also recorded: did not show any enhancements
